Laboratory results taken from patent US7153869B2, “Substituted amino acids as erythropoietin mimetics” (priority 1998, dated 2006).
pIC50: −log10 of the molar value. Read-outs that look alike come from different tables or passages of the source.

Target: T1, EBP-Ig (N-terminal 225 amino acids of the human EPO receptor joined to an Ig heavy chain) (Homo sapiens, UniProt P19235)
T1 construct: Ig heavy chain (fusion partner); made in house; host or cells: NSO cells (secreted into conditioned media)
T1 sequence (P19235 25-250 limits assumed): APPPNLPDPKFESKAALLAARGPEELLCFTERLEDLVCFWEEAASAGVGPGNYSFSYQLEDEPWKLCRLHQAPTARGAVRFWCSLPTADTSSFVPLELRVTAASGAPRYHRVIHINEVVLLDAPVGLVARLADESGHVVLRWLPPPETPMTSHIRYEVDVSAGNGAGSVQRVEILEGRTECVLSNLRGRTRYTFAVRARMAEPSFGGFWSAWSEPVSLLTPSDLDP
Assay: Inhibition of [125I]EPO binding to immobilized EBP-Ig (EPO binding protein-Ig), scintillation Flash plate competition assay
Details: for IC30 μM (Inhibition of EPO binding to EBP-Ig) / % inh @ 50 μM (Inhibition of EPO binding to EBP-Ig) / IC50: 0.5 nM [125I]EPO; for IC30 μM (Inhibition of EPO binding to EBP-Ig): 0–500 μM test compound; for % inh @ 50 μM (Inhibition of EPO binding to EBP-Ig): 50 μM test compound, average % inhibition; for IC50: read-out: IC50, μM (Inhibition of EPO binding to EBP-Ig), concentration reducing corrected total binding to 50%
From the text: The interaction of biotin and streptavidin is frequently employed to capture and effectively immobilize reagents useful in assay protocols and has been employed here as a simple method to capture and immobilize EBP-Ig. EBP-Ig is initially randomly modified with an amine reactive derivative of biotin to produce biotinylated-EBP-Ig. Use of streptavidin coated plates allows the capture of the biotinylated EBP-Ig on the surface of a scintillant impregnated coated well (Flash plates, NEN-DuPont). […] The amount of light produced was quantified to estimate the amount of ligand binding. The specific assay format was suitable for the multi-well plate capacity of a Packard TopCount Microplate Scintillation counter.
Biotinylated EBP-Ig was prepared as follows. EBP-Ig (3 mL, OD280 2.9) was exchanged into 50 mM sodium bicarbonate, pH 8.5 using a Centriprep 10 ultrafiltration device. The final volume of the exchanged protein was 1.2 mL (OD280 2.6, representing about 2 mg total protein). 10 μL of a 4 mg/ml solution of NHS-LC-Biotin (Pierce) was added and the reaction mixture placed on ice in the dark for two hours. Unreacted biotin was removed by exchange of the reaction buffer into PBS in a Centriprep 10 device and the protein reagent aliquoted and stored at −70° C.
All wells were adjusted to a final DMSO concentration of 5%. […] After all additions were made, the plate was covered with an adhesive top seal and placed in the dark at room temperature overnight. The next day all liquid was aspirated from the wells to limit analyte dependent quench of the signal, and the plates were counted on a Packard TOPCOUNT Microplate Scintillation Counter. […] Corrected total binding (CTB) was calculated as: TB−NSB=CTB. […] Table 1 lists the average % inhibition, and if determined the IC50 and IC30 values for compounds of Formula I, where the compound numbers refer to the compounds in the tables accompanying the preparative examples.

[1] = read-out: % inh @ 50 μM (Inhibition of EPO binding to EBP-Ig)
[2] = read-out: EPO/EBP-Ig % inh @ 50 μM, Table 7, 50 μM

O=C(O)CCCC(=O)Nc1ccc(/C=C/CN(Cc2ccc(OCc3ccccc3)cc2)C(CCC(=O)O)C(=O)O)cc1 (stereo not shown) [compound 83]
EPO/EBP-Ig % inh @ 50 μM (Table 5, 50 μM): 18%

Cc1ccc(Oc2cccc(CN(Cc3cccc(NCc4cccc(Cl)c4)c3)C(CC(=O)O)C(=O)O)c2)cc1 (stereo not shown) [compound 71]
EPO/EBP-Ig % inh @ 50 μM (Table 4, 50 μM): −6%

O=C(O)CCCC(=O)NCCCCC(C(=O)NCCCOCCCCOCCCNC(=O)C(CCCCNC(=O)CCCC(=O)O)N(Cc1ccc(OCc2ccccc2)cc1)Cc1ccc(OCc2ccccc2)cc1)N(Cc1ccc(OCc2ccccc2)cc1)Cc1ccc(OCc2ccccc2)cc1 (stereo not shown) [compound 266]
IC30 μM (Inhibition of EPO binding to EBP-Ig): 1 µM
EPO/EBP-Ig % inh @ 50 μM (50 μM compound, Table 13): 82%
% inh @ 50 μM (Inhibition of EPO binding to EBP-Ig): 82%
IC50: 4 µM

COC(=O)C(CCCCN)N(Cc1ccc(OCc2ccccc2)cc1)Cc1cccc(N)c1 (stereo not shown) [compound 115]
inhibition at 50 µM [1]: 35%
inhibition at 50 µM [2]: 35%

CC(=O)O.COC(=O)c1cccc(C=CCNC(CSCc2ccccc2)C(=O)OC)c1 (stereo not shown) [compound 368]
IC30 μM (Inhibition of EPO binding to EBP-Ig): 90 µM
EPO/EBP-Ig % inh @ 50 μM (50 μM compound): 40%
% inh @ 50 μM (Inhibition of EPO binding to EBP-Ig): 40%

CC(C)(C)OC[C@@H](C(=O)O)N(C/C=C/c1cccc(Oc2cccc(C(F)(F)F)c2)c1)C/C=C/c1cccc(Oc2cccc(C(F)(F)F)c2)c1 [compound 303]
EPO/EBP-Ig % inh @ 50 μM (50 μM compound, Table 16A): 21%

CC(=O)O.COC(=O)c1cccc(C=CCNC(C(=O)OC)C(C)C)c1 (stereo not shown) [compound 371]
EPO/EBP-Ig % inh @ 50 μM (50 μM compound): 16%

COC(=O)[C@H](CCC(=O)O)NC/C=C/c1cccc(Oc2ccc(Cl)c(Cl)c2)c1.O=C(O)C(F)(F)F [compound 328]
EPO/EBP-Ig % inh @ 50 μM (50 μM compound, Table 19A): 33%

O=C(O)C(F)(F)F.O=C(O)CC[C@H](NC/C=C/c1cccc(Oc2cccc(C(F)(F)F)c2)c1)C(=O)O [compound 330]
EPO/EBP-Ig % inh @ 50 μM (50 μM compound, Table 19A): 12%

CCCCNC(=O)C(CCCCN)N(C/C=C/c1ccccc1)C/C=C/c1ccccc1 (stereo not shown) [compound 205]
EPO/EBP-Ig % inh @ 50 μM (50 μM compound, Table 10): 26%

COC(=O)[C@H](COC(C)(C)C)NC/C=C/c1cccc(Oc2ccc(C(C)(C)C)cc2)c1 [compound 356]
EPO/EBP-Ig % inh @ 50 μM (50 μM compound, Table 20A): 23%

COc1ccc(CCNC(=O)C(CCCCNC(=O)Nc2ccccc2)N(C/C=C/c2cccc(Oc3ccccc3)c2)C/C=C/c2cccc(Oc3ccccc3)c2)cc1 (stereo not shown) [compound 228]
EPO/EBP-Ig % inh @ 50 μM (50 μM compound, Table 10): 21%

COC(=O)C(CCCCN)N(C/C=C/c1cccc(Oc2ccc(C(C)(C)C)cc2)c1)Cc1cccc(OCc2ccccc2)c1 (stereo not shown) [compound 139]
pIC50: 5.00
IC30 μM (Inhibition of EPO binding to EBP-Ig): 2 µM
inhibition at 50 µM [1]: 46%

O=C(NCCCCC(C(=O)O)N(C/C=C/c1ccccc1)C/C=C/c1ccccc1)OCc1ccccc1 (stereo not shown) [compound 172]
EPO/EBP-Ig % inh @ 50 μM (50 μM compound, Table 9): 15%

CC(C)(C)OC(=O)CC(C(=O)NCCOCCOCCNC(=O)C(CC(=O)OC(C)(C)C)N(C/C=C/c1cccc(Oc2ccc(C(C)(C)C)cc2)c1)C/C=C/c1cccc(Oc2ccc(C(C)(C)C)cc2)c1)N(C/C=C/c1cccc(Oc2ccc(C(C)(C)C)cc2)c1)C/C=C/c1cccc(Oc2ccc(C(C)(C)C)cc2)c1 (stereo not shown) [compound 256]
EPO/EBP-Ig % inh @ 50 μM (50 μM compound, Table 12): 10%

O=C(O)CCCC(=O)NCCCCC(C(=O)NCCOCCOCCNC(=O)C(CCCCNC(=O)CCCC(=O)O)N(Cc1ccc(OCc2ccccc2)cc1)Cc1ccc(OCc2ccccc2)cc1)N(Cc1ccc(OCc2ccccc2)cc1)Cc1ccc(OCc2ccccc2)cc1 (stereo not shown) [compound 263]
IC30 μM (Inhibition of EPO binding to EBP-Ig): 1 µM
EPO/EBP-Ig % inh @ 50 μM (50 μM compound, Table 13): 88%
% inh @ 50 μM (Inhibition of EPO binding to EBP-Ig): 88%
IC50: 1.5 µM

COC(=O)[C@H](CO)NC/C=C/c1cccc(Oc2ccc(Cl)c(Cl)c2)c1.O=C(O)C(F)(F)F [compound 345]
EPO/EBP-Ig % inh @ 50 μM (50 μM compound, Table 20A): 40%

COc1ccc(CCNC(=O)C(CCCCN)N(CC=Cc2ccccc2)CC=Cc2ccccc2)cc1 (stereo not shown) [compound 211]
IC30 μM (Inhibition of EPO binding to EBP-Ig): 20 µM
inhibition at 50 µM [1]: 62%
inhibition at 50 µM (read-out: EPO/EBP-Ig % inh @ 50 μM, 50 μM compound, Table 10): 62%
IC50: 65 µM

COC(=O)[C@H](CCCCNC(=O)OC(C)(C)C)NC/C=C/c1cccc(Oc2ccccc2)c1 [compound 316]
EPO/EBP-Ig % inh @ 50 μM (50 μM compound, Table 18A): 20%

COC(=O)C(CCCCNC(=O)OC(C)(C)C)N(Cc1cccc(OCc2ccccc2)c1)Cc1cccc(OCc2ccccc2)c1 (stereo not shown) [compound 109]
EPO/EBP-Ig % inh @ 50 μM (Table 7, 50 μM): 7%

COC(=O)C(CCCCN)N(Cc1ccc(OCc2ccccc2)cc1)Cc1cccc(NC(=O)c2ccc(C)cc2)c1 (stereo not shown) [compound 118]
pIC50: 5.00
IC30 μM (Inhibition of EPO binding to EBP-Ig): 2 µM
inhibition at 50 µM [1]: 36%
inhibition at 50 µM [2]: 36%

COC(=O)C(COC(C)(C)C)NCC=Cc1cccc(Oc2ccccc2)c1 (stereo not shown) [cpd 352, N-(3-phenoxycinnamyl)Ser(t-Bu)-OMe]
EPO/EBP-Ig % inh @ 50 μM (50 μM compound, Table 20A): 8%

COC(=O)C(CCCCNC(=O)OC(C)(C)C)N(C/C=C/c1cccc(Oc2ccccc2)c1)C/C=C/c1cccc(Oc2ccccc2)c1 (stereo not shown) [compound 180]
EPO/EBP-Ig % inh @ 50 μM (50 μM compound, Table 9): −4%

O=C(O)CC(C(=O)O)N(Cc1cccc(NCc2cccc(Br)c2)c1)Cc1cccc(Oc2ccccc2)c1 (stereo not shown) [compound 67]
EPO/EBP-Ig % inh @ 50 μM (Table 4, 50 μM): −8%

NC(=O)C[C@H](NC/C=C/c1ccc(C(F)(F)F)cc1)C(=O)O.O=C(O)C(F)(F)F [compound 367]
EPO/EBP-Ig % inh @ 50 μM (50 μM compound): 0%

CCCCNC(=O)C(CCCCNC(=O)c1ccccc1OC)N(C/C=C/c1ccccc1)C/C=C/c1ccccc1 (stereo not shown) [compound 206]
EPO/EBP-Ig % inh @ 50 μM (50 μM compound, Table 10, 50 µM): 17%

COC(=O)C(CCCCNC(=O)OC(C)(C)C)N(C/C=C/c1cccc(Oc2ccc(C(C)(C)C)cc2)c1)C/C=C/c1cccc(Oc2ccc(C(C)(C)C)cc2)c1 (stereo not shown) [compound 181]
EPO/EBP-Ig % inh @ 50 μM (50 μM compound, Table 9): −9%

O=C(O)CN(C/C=C/c1cccc(Oc2ccccc2)c1)C/C=C/c1cccc(Oc2ccccc2)c1 [compound 312]
IC30 μM (Inhibition of EPO binding to EBP-Ig): 10 µM
inhibition at 50 µM [1]: 45%
inhibition at 50 µM (read-out: EPO/EBP-Ig % inh @ 50 μM, 50 μM compound, Table 17A): 45%
IC50: 85 µM

COC(=O)C(CCC(=O)OC(C)(C)C)N(C/C=C/c1cccc2ccccc12)C/C=C/c1cccc2ccccc12 (stereo not shown) [compound 95]
EPO/EBP-Ig % inh @ 50 μM (Table 6, 50 μM): 15%

CC(C)(C)OC(=O)CCC(NCC=Cc1cccc(Oc2ccccc2)c1)C(=O)O (stereo not shown) [cpd 337, N-(3-Phenoxycinnamyl)Glu(O-t-Bu)-OH]
EPO/EBP-Ig % inh @ 50 μM (50 μM compound, Table 19A): 0%

O=C(O)C(F)(F)F.O=C(O)[C@H](CO)N(C/C=C/c1cccc(Oc2ccc(Cl)c(Cl)c2)c1)C/C=C/c1cccc(Oc2ccc(Cl)c(Cl)c2)c1 [compound 307]
EPO/EBP-Ig % inh @ 50 μM (50 μM compound, Table 16A): 25%

CC(C)(C)OC(=O)CC(C(=O)NCCCOCCCCOCCCNC(=O)C(CC(=O)OC(C)(C)C)N(C/C=C/c1cccc(Oc2ccc(C(C)(C)C)cc2)c1)C/C=C/c1cccc(Oc2ccc(C(C)(C)C)cc2)c1)N(C/C=C/c1cccc(Oc2ccc(C(C)(C)C)cc2)c1)C/C=C/c1cccc(Oc2ccc(C(C)(C)C)cc2)c1 (stereo not shown) [compound 252]
EPO/EBP-Ig % inh @ 50 μM (50 μM compound, Table 12): −4%

COC(=O)C(CCCCNC(=O)OCc1ccccc1)N(C/C=C/c1ccc2ccccc2c1)C/C=C/c1ccc2ccccc2c1 (stereo not shown) [compound 175]
EPO/EBP-Ig % inh @ 50 μM (50 μM compound, Table 9): 1%

NCCCCC(C(=O)NCc1ccc(OCC=Cc2ccccc2)cc1)N(CC=Cc1ccccc1)CC=Cc1ccccc1 (stereo not shown) [compound 220]
IC30 μM (Inhibition of EPO binding to EBP-Ig): 30 µM
EPO/EBP-Ig % inh @ 50 μM (50 μM compound, Table 10): 45%
% inh @ 50 μM (Inhibition of EPO binding to EBP-Ig): 45%
IC50: 50 µM

COC(=O)[C@H](Cc1c[nH]c2ccccc12)NC/C=C/c1ccccc1 [compound 364]
EPO/EBP-Ig % inh @ 50 μM (50 μM compound): 16%
